Results taken from patent US11944623B2, “Modulators of Kv3 channels to treat pain” (Autifony Therapeutics Limited, priority 2015, dated 2024).

Tests used:
[1] = test system: rat model of persistent inflammatory pain; experiment: Persistent inflammatory pain model (intraplantar FCA): paw withdrawal to mechanical pressure and cold (10° C.), general observations; assay type: in vivo; conditions: 30 mg/kg oral
Method: (§1) The efficacy of Compounds 1, 2, 3 and 4 was investigated using rat models of neuropathic and/or persistent inflammatory pain.
(§2) Subjects comprised male, Wistar Hanover rats, 6 animals per group (225±2 g for Compound 1 studies and Compound 2 studies; 214±1 g for Compound 3 studies; 236±1 g for Compound 4 studies).
(§3) Vehicle (12% Captisol®; 0.5% w/v HPMC and 0.1% w/v Tween-80; 5 ml/kg via the intraperitoneal route) was prepared using autoclaved deionized water not more than one week prior to use.
(§4) The details of the studies performed are outlined in Table 1.
(§5) The control for the neuropathic pain model was lamotrigine, administered at 30 mg/kg via oral delivery. The control for the inflammatory pain model was diclofenac, administered at 30 mg/kg via oral delivery. Statistical analysis was performed using one-way ANOVA, and comparisons were performed with time-matched vehicle group using Tukey's HSD test wherein * p<0.05, ** p<0.01, *** p<0.001.
(§6) Treatment groups were randomised and blinded. Groups of 6 rats were used.
Mechanical hyperalgesia was examined in a model of persistent inflammatory pain. The hyperalgesia was induced by an intraplantar injection (25 μl) of Freund's Complete Adjuvant (FCA) into the left hind paw.
To assess the effect of the test compound, paw withdrawal thresholds or latencies were measured on both the ipsilateral (FCA-injected) and contralateral (non-injected) paws, prior to (naïve) and 24 hours following FCA injection (predose), and then at 1, 3, 6 and 24 hours after drug or vehicle administration.
(§7) Mechanical hyperalgesia was examined in a model of neuropathic pain by measuring paw withdrawal thresholds (PWT) to increasing mechanical force applied to the dorsal surface of the rat paw using an Analgesymeter (Ugo-Basile, Milan) equipped with a wedge-shaped probe (area 1.75 mm^2). Cut-off was set at 250 g and the end-point was taken as withdrawal of the hind paw. Both ipsilateral and contralateral paw withdrawal readings were taken.
(§8) Cold sensitivity was assessed using a commercially available cold-plate (Ugo Basile, Milan). The cold plate was allowed to stabilize for 5 minutes at the set temperature prior to testing. Paw withdrawal latencies (PWL) were determined with the cold-plate set at 10° C. The animals were lightly restrained and each hind paw in turn placed onto the surface of the cold-plate. The end point was taken as the withdrawal of the paw and recorded as the withdrawal latency for the ipsilateral and the contralateral paw. A maximum cut-off of 30 seconds was used for each paw.
(§9) In addition to behavioural pain readings, each rat was observed throughout the study for changes in general behaviour.
(§10) Data were expressed as withdrawal threshold (g) or withdrawal latencies (s) and percentage reversals calculated according to the following formula: […]
(§11) Statistical analysis was carried out on withdrawal threshold readings using ANOVA with repeated measures followed by Tukey's HSD test. The level for statistical significance was set as p<0.05.

[2] = test system: rat model of neuropathic pain; experiment: Neuropathic pain model (partial ligation of the sciatic nerve): paw withdrawal to mechanical pressure and cold (10° C.), general observations; assay type: in vivo
Method: as §1, §2, §3, §4, §5, §6
Neuropathic pain was induced by partial ligation of the sciatic nerve. Briefly, the rats were anaesthetised (isoflurane/O2 inhalation), the left sciatic nerve exposed at mid-thigh level through a small incision and ⅓ to ½ of the nerve thickness tightly ligated within a 7.0 silk suture. The wound was closed with surgical glue. Animals were allowed to recover and tested 12-15 days following surgery.
Withdrawal thresholds or latencies were measured on both the ipsilateral (ligated) and contralateral (non-ligated) paws, prior to (predose) and then up to 24 h following drug or vehicle administration.
Pre-dose behavioural measurements were obtained by measuring paw withdrawals 14 days following nerve ligation; before the initiation of drug treatment. Following treatment, further readings were taken at 1, 3, 6 and 24 hour after administration.
as §7, §8, §9, §10, §11

[3] = positive control in Compound 2 study, 3 hours post-dose
[4] = positive control in Compound 3 study, 3 hours post-dose
[5] = positive control in Compound 4 study
[6] = positive control in Compound 2 Study 1, 30 mg/kg oral, 3 hours post-dose
[7] = positive control in Compound 3 neuropathic study, 30 mg/kg oral, 3 hours post-dose
[8] = positive control in Study 2 (Compounds 1 and 2), 30 mg/kg oral, 3 hours post-dose

With `O=C(O)Cc1ccccc1Nc1c(Cl)cccc1Cl` [diclofenac, reference compound] the “peak reversal, mechanical” value ([1]; positive control in Compound 1 study, 1 hour post-dose) was 64%, the “peak reversal, cold” value ([1]; positive control in Compound 1 study, 3 hours post-dose) was 79% and the “peak reversal, cold” value [1, 3] was 69%. For the same compound, the “peak reversal, mechanical” value [1, 3] was 66%, the “peak reversal, cold” value [1, 4] was 45% and the “peak reversal, mechanical” value [1, 4] was 60%. The “reversal, cold” value [1, 5] was 50% and the “reversal, mechanical” value [1, 5] was 49%.

In the case of `Nc1nnc(-c2cccc(Cl)c2Cl)c(N)n1` [lamotrigine, reference compound], the “peak reversal, cold” value ([2]; positive control in Compound 1 Study 1, 30 mg/kg oral, 1 hour post-dose) is reported as 58%, the “peak reversal, mechanical” value ([2]; positive control in Compound 1 Study 1, 30 mg/kg oral, 3 hours post-dose) is reported as 65% and the “peak reversal, cold” value [2, 6] is reported as 58%. For the same compound, the “peak reversal, mechanical” value [2, 6] was 54%, the “peak reversal, cold” value [2, 7] was 74% and the “peak reversal, mechanical” value [2, 7] was 61%. The “peak reversal, cold” value [2, 8] was 67% and the “peak reversal, mechanical” value [2, 8] was 67%.
